In publication PMC6891286, “Towards the Development of an In vivo Chemical Probe for Cyclin G Associated Kinase (GAK)” (Molecules, 2019):

Columns and labels:
Test in all cases: KINOMEscan
Type in all cases: binding
Conditions in all cases: 35 at 1 µM; read-out: % inhibition
LOK = biological target: T1, LOK (Homo sapiens, UniProt O94804)
T1 construct: purchased Eurofins DiscoverX (KINOMEscan)
Method: (§1) KinomeScan Assay on 35 was performed as previously described at EuroFins DiscoverX (Fremont, CA, USA).

ROS1 = biological target: T2, ROS1 (Homo sapiens, UniProt P08922)
T2 construct: purchased Eurofins DiscoverX (KINOMEscan)
Method: as §1

BIKE = biological target: T3, BIKE (Homo sapiens, UniProt Q9NSY1)
T3 construct: purchased Eurofins DiscoverX (KINOMEscan)
Method: as §1

PDGFRA = biological target: T4, PDGFRA (Homo sapiens, UniProt P16234)
T4 construct: purchased Eurofins DiscoverX (KINOMEscan)
Method: as §1

BMPR1B = biological target: T5, BMPR1B (Homo sapiens, UniProt O00238)
T5 construct: purchased Eurofins DiscoverX (KINOMEscan)
Method: as §1

MRCKA = biological target: T6, MRCKA (Homo sapiens, UniProt Q5VT25)
T6 construct: purchased Eurofins DiscoverX (KINOMEscan)
Method: as §1

HIPK4 = biological target: T7, HIPK4 (Homo sapiens, UniProt Q8NE63)
T7 construct: purchased Eurofins DiscoverX (KINOMEscan)
Method: as §1

FLT1 = biological target: T8, FLT1 (Homo sapiens, UniProt P17948)
T8 construct: purchased Eurofins DiscoverX (KINOMEscan)
Method: as §1

EGFR(E746-A750del) = biological target: T9, EGFR(E746-A750del) (Homo sapiens, UniProt P00533, DEL746-750)
T9 construct: purchased Eurofins DiscoverX (KINOMEscan)
Method: as §1

PIK3CG = biological target: T10, PIK3CG (Homo sapiens, UniProt P48736)
T10 construct: purchased Eurofins DiscoverX (KINOMEscan)
Method: as §1

ROCK2 = biological target: T11, ROCK2 (Homo sapiens, UniProt O75116)
T11 construct: purchased Eurofins DiscoverX (KINOMEscan)
Method: as §1

TESK1 = biological target: T12, TESK1 (Homo sapiens, UniProt Q15569)
T12 construct: purchased Eurofins DiscoverX (KINOMEscan)
Method: as §1

RIPK5 = biological target: T13, RIPK5 (Homo sapiens, UniProt Q6XUX3)
T13 construct: purchased Eurofins DiscoverX (KINOMEscan)
Method: as §1

p38-beta = biological target: T14, p38-beta (Homo sapiens, UniProt Q15759)
T14 construct: purchased Eurofins DiscoverX (KINOMEscan)
Method: as §1

IKK-epsilon = biological target: T15, IKK-epsilon (Homo sapiens, UniProt Q14164)
T15 construct: purchased Eurofins DiscoverX (KINOMEscan)
Method: as §1

CDK3 = biological target: T16, CDK3 (Homo sapiens, UniProt Q00526)
T16 construct: purchased Eurofins DiscoverX (KINOMEscan)
Method: as §1

CHEK1 = biological target: T17, CHEK1 (Homo sapiens, UniProt O14757)
T17 construct: purchased Eurofins DiscoverX (KINOMEscan)
Method: as §1

KIT-autoinhibited = biological target: T18, KIT-autoinhibited (Homo sapiens, UniProt P10721)
T18 construct: purchased Eurofins DiscoverX (KINOMEscan)
Method: as §1

GSK3A = biological target: T19, GSK3A (Homo sapiens, UniProt P49840)
T19 construct: purchased Eurofins DiscoverX (KINOMEscan)
Method: as §1

[1] = biological target: T20, RSK4(Kin.Dom.1-N-terminal) (Homo sapiens, UniProt Q9UK32)
T20 construct: RSK4(Kin.Dom.1-N-terminal); purchased Eurofins DiscoverX (KINOMEscan)
Method: as §1

SRPK2 = biological target: T21, SRPK2 (Homo sapiens, UniProt P78362)
T21 construct: purchased Eurofins DiscoverX (KINOMEscan)
Method: as §1

[2] = biological target: T22, ABL1(F317I)-nonphosphorylated (Homo sapiens, UniProt P00519, F317I)
T22 construct: purchased Eurofins DiscoverX (KINOMEscan)
Method: as §1

PIP5K2C = biological target: T23, PIP5K2C (Homo sapiens, UniProt Q8TBX8)
T23 construct: purchased Eurofins DiscoverX (KINOMEscan)
Method: as §1

BMPR1A = biological target: T24, BMPR1A (Homo sapiens, UniProt P36894)
T24 construct: purchased Eurofins DiscoverX (KINOMEscan)
Method: as §1

BRAF(V600E) = biological target: T25, BRAF(V600E) (Homo sapiens, UniProt P15056, V600E)
T25 construct: purchased Eurofins DiscoverX (KINOMEscan)
Method: as §1

PAK6 = biological target: T26, PAK6 (Homo sapiens, UniProt Q9NQU5)
T26 construct: purchased Eurofins DiscoverX (KINOMEscan)
Method: as §1

WNK4 = biological target: T27, WNK4 (Homo sapiens, UniProt Q96J92)
T27 construct: purchased EuroFins DiscoverX (Fremont, CA, USA)
Method: as §1

PIK3CA(E545A) = biological target: T28, PIK3CA(E545A) (Homo sapiens, UniProt P42336, E545A)
T28 construct: purchased Eurofins DiscoverX (KINOMEscan)
Method: as §1

TLK2 = biological target: T29, TLK2 (Homo sapiens, UniProt Q86UE8)
T29 construct: purchased Eurofins DiscoverX (KINOMEscan)
Method: as §1

RET(V804M) = biological target: T30, RET(V804M) (Homo sapiens, UniProt P07949, V804M)
T30 construct: purchased Eurofins DiscoverX (KINOMEscan)
Method: as §1

SRPK1 = biological target: T31, SRPK1 (Homo sapiens, UniProt Q96SB4)
T31 construct: purchased Eurofins DiscoverX (KINOMEscan)
Method: as §1

S6K1 = biological target: T32, S6K1 (Homo sapiens, UniProt P23443)
T32 construct: purchased Eurofins DiscoverX (KINOMEscan)
Method: as §1

BUB1 = biological target: T33, BUB1 (Homo sapiens, UniProt O43683)
T33 construct: purchased Eurofins DiscoverX (KINOMEscan)
Method: as §1

NEK4 = biological target: T34, NEK4 (Homo sapiens, UniProt P51957)
T34 construct: purchased Eurofins DiscoverX (KINOMEscan)
Method: as §1

ERBB2 = biological target: T35, ERBB2 (Homo sapiens, UniProt P04626)
T35 construct: purchased Eurofins DiscoverX (KINOMEscan)
Method: as §1

MARK3 = biological target: T36, MARK3 (Homo sapiens, UniProt P27448)
T36 construct: purchased Eurofins DiscoverX (KINOMEscan)
Method: as §1

KIT = biological target: T37, KIT (Homo sapiens, UniProt P10721)
T37 construct: purchased Eurofins DiscoverX (KINOMEscan)
Method: as §1

CDKL5 = biological target: T38, CDKL5 (Homo sapiens, UniProt O76039)
T38 construct: purchased Eurofins DiscoverX (KINOMEscan)
Method: as §1

PRKCD = biological target: T39, PRKCD (Homo sapiens, UniProt Q05655)
T39 construct: purchased Eurofins DiscoverX (KINOMEscan)
Method: as §1

EPHB1 = biological target: T40, EPHB1 (Homo sapiens, UniProt P54762)
T40 construct: purchased Eurofins DiscoverX (KINOMEscan)
Method: as §1

MKK7 = biological target: T41, MKK7 (Homo sapiens, UniProt O14733)
T41 construct: purchased Eurofins DiscoverX (KINOMEscan)
Method: as §1

SNRK = biological target: T42, SNRK (Homo sapiens, UniProt Q9NRH2)
T42 construct: purchased Eurofins DiscoverX (KINOMEscan)
Method: as §1

T16 sequence (Q00526 whole entry): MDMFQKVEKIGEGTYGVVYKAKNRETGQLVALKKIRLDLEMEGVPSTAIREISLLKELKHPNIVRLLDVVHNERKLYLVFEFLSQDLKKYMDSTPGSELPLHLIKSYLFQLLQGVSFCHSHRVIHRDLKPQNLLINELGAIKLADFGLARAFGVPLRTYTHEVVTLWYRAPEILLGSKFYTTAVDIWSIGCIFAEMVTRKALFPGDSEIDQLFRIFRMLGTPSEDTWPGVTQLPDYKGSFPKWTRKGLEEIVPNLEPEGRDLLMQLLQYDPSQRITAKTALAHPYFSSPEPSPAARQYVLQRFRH
T24 sequence (P36894 24-532): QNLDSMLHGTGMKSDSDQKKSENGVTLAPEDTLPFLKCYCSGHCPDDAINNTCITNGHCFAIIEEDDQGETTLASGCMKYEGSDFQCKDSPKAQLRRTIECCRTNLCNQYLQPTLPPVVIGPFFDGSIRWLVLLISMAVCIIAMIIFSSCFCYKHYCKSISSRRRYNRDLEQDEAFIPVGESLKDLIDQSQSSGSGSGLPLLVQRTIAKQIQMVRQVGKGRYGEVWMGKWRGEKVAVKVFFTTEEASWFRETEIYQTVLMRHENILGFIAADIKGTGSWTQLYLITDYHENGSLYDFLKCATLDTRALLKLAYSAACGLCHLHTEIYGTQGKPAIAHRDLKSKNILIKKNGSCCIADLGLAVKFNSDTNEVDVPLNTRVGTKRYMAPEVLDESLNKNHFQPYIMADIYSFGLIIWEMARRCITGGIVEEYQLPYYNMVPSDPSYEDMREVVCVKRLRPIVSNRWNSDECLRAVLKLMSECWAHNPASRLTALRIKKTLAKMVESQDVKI
T25 sequence (P15056 whole entry V600E): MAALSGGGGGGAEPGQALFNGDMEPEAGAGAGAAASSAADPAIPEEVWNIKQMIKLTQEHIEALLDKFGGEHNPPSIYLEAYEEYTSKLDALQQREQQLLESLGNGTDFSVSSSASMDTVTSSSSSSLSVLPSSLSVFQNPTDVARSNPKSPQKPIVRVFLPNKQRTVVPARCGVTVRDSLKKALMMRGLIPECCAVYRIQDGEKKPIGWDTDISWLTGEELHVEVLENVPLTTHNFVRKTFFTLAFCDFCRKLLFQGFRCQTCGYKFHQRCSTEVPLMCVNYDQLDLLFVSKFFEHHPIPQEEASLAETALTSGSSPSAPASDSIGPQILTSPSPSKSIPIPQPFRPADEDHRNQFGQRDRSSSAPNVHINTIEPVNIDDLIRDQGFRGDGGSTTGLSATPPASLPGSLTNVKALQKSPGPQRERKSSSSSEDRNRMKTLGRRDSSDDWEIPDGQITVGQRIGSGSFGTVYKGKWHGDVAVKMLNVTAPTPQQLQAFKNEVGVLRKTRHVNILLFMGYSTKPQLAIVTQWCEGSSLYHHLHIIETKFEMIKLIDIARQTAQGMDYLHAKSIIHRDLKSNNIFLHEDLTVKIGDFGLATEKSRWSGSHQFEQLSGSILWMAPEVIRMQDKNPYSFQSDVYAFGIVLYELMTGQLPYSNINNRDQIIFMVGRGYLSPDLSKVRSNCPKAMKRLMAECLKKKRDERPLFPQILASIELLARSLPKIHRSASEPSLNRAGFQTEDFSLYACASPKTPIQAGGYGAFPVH
T8 sequence (P17948 27-1338): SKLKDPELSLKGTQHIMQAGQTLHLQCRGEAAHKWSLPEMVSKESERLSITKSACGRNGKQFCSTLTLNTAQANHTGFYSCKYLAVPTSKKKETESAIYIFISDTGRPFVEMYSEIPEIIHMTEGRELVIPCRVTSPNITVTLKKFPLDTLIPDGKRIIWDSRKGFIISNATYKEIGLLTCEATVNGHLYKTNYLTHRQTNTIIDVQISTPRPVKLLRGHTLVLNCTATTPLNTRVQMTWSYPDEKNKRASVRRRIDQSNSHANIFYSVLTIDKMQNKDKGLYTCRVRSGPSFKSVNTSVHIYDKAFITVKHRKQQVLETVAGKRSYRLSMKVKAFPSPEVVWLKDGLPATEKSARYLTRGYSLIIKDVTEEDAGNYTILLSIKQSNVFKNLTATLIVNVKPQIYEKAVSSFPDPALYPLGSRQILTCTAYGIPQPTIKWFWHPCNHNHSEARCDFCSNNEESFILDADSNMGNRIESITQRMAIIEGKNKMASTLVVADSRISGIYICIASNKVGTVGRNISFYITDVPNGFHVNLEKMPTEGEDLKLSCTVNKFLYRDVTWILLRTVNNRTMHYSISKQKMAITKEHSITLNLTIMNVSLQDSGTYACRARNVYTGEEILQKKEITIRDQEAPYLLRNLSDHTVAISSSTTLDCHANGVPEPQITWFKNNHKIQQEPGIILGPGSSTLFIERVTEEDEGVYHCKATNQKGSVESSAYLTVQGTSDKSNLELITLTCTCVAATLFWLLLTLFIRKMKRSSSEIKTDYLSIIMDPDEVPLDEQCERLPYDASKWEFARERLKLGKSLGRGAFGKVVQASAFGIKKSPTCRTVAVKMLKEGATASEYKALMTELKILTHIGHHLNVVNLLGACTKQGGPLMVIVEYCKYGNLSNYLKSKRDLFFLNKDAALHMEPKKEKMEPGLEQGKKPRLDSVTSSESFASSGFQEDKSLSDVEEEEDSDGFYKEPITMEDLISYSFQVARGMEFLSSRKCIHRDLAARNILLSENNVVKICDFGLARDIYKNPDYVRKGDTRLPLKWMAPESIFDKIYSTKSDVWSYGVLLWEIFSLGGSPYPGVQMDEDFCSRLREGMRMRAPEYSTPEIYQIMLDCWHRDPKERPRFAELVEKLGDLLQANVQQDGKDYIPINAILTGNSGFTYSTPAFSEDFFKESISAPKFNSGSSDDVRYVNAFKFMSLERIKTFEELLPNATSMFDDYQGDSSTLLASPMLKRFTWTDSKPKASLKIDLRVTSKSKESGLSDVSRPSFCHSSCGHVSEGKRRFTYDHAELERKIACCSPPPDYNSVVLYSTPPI
T12 sequence (Q15569 whole entry): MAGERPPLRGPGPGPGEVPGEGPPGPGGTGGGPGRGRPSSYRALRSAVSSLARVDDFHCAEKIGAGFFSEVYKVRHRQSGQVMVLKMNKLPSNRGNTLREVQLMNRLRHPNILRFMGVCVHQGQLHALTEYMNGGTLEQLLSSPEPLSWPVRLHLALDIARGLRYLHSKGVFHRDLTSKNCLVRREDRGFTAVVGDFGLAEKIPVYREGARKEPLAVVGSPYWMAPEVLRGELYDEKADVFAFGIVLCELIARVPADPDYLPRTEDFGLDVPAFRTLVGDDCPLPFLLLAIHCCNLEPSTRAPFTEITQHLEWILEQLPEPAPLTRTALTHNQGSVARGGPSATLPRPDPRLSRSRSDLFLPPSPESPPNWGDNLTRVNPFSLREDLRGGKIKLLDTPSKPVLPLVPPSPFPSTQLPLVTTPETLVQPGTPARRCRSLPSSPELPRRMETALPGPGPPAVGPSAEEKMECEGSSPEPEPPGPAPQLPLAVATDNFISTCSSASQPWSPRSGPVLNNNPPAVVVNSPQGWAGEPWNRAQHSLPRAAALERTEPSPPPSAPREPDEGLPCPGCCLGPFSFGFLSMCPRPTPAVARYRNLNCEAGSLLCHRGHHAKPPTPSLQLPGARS
T27 sequence (Q96J92 whole entry): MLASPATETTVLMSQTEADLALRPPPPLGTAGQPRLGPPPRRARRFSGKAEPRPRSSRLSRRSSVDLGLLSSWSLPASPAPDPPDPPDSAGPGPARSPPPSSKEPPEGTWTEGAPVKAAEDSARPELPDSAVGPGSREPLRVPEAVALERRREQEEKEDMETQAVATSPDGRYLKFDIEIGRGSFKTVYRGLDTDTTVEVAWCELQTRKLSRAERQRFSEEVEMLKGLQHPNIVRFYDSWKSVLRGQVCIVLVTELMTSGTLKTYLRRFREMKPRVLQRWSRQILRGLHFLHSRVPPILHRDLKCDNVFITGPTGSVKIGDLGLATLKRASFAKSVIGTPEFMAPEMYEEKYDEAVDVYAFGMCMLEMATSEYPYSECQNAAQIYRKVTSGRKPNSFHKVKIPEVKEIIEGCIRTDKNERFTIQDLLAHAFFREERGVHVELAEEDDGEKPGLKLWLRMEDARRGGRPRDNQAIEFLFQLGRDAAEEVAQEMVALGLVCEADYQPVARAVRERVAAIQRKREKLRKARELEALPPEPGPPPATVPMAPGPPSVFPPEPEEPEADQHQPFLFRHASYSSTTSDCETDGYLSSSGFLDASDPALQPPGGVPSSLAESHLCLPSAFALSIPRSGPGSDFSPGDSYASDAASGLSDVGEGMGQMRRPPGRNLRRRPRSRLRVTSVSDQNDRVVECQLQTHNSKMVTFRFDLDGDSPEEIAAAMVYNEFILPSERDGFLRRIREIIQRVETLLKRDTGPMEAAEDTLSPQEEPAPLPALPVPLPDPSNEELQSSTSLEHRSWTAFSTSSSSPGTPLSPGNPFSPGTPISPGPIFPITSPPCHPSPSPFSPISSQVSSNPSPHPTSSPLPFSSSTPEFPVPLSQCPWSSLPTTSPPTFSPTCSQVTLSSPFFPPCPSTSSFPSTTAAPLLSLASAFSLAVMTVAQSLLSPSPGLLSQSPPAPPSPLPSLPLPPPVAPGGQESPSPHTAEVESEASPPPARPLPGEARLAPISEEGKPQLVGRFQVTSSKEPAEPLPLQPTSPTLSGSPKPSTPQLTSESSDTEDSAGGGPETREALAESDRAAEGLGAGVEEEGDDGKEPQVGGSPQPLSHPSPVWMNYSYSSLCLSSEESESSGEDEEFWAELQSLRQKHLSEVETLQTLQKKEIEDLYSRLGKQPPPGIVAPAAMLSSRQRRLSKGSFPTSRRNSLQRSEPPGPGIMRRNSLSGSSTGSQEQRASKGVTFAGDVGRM

Compound Brc1ccc2nccc(Nc3ccc4cn[nH]c4c3)c2c1 [Compound 35, 6-Bromo-N-(1H-indazol-6-yl)quinolin-4-amine] has an activity at 1 µM (LOK) of 100%, an activity at 1 µM (ROS1) of 94% and an activity at 1 µM (BIKE) of 100%. The activity at 1 µM (PDGFRA) was 100%, the activity at 1 µM (BMPR1B) was 91% and the activity at 1 µM (MRCKA) was 100%. It also gave an activity at 1 µM (HIPK4) of 57%, an activity at 1 µM (FLT1) of 100% and an activity at 1 µM (EGFR(E746-A750del)) of 79%. The activity at 1 µM (PIK3CG) was 100%, the activity at 1 µM (ROCK2) was 91% and the activity at 1 µM (TESK1) was 100%. For the same compound, the activity at 1 µM (RIPK5) was 100%, the activity at 1 µM (p38-beta) was 100% and the activity at 1 µM (IKK-epsilon) was 95%. For the same compound, the activity at 1 µM (CDK3) was 96%, the activity at 1 µM (CHEK1) was 100% and the activity at 1 µM (KIT-autoinhibited) was 100%. For the same compound, the activity at 1 µM (GSK3A) was 100%, the activity at 1 µM [1] was 100% and the activity at 1 µM (SRPK2) was 100%. It also gave an activity at 1 µM [2] of 77%, an activity at 1 µM (PIP5K2C) of 95% and an activity at 1 µM (BMPR1A) of 100%. For the same compound, the activity at 1 µM (BRAF(V600E)) was 80%, the activity at 1 µM (PAK6) was 100% and the activity at 1 µM (WNK4) was 100%. For the same compound, the activity at 1 µM (PIK3CA(E545A)) was 98%, the activity at 1 µM (TLK2) was 100% and the activity at 1 µM (RET(V804M)) was 100%. For the same compound, the activity at 1 µM (SRPK1) was 100%, the activity at 1 µM (S6K1) was 91% and the activity at 1 µM (BUB1) was 93%. The activity at 1 µM (NEK4) was 100%, the activity at 1 µM (ERBB2) was 100% and the activity at 1 µM (MARK3) was 100%. For the same compound, the activity at 1 µM (KIT) was 100%, the activity at 1 µM (CDKL5) was 100% and the activity at 1 µM (PRKCD) was 100%. It also gave an activity at 1 µM (EPHB1) of 100%, an activity at 1 µM (MKK7) of 100% and an activity at 1 µM (SNRK) of 100%.
